Laboratory results from patent publication US20180221352A1, “3-(1H-PYRROLO[2,3-C]PYRIDIN-2-YL)-1H-PYRAZOLO[3,4-B]PYRIDINES AND THERAPEUTIC USES THEREOF” (Samumed, LLC, priority 2015, published 2018).

Assays:
Type in all cases: cell-based
[1] = tested on: Wnt activity (Sp5-Luc reporter, SW480 colon carcinoma cells); assay: Wnt activity screening assay, Sp5-Luc reporter gene in SW480 cells; conditions: Homo sapiens; for inhibition at 10 µM: SW480, read-out: percent inhibition at 10 μM; for EC50: Sp5-Luc reporter, SW480 cells, overnight incubation
From the text: The screening assay for Wnt activity is described as follows. Reporter cell lines can be generated by stably transducing cancer cell lines (e.g., colon cancer) or primary cells (e.g., IEC-6 intestinal cells) with a lentiviral construct that includes a Wnt-responsive promoter driving expression of the firefly luciferase gene.
SW480 colon carcinoma cells were transduced with a lentiviral vector expressing luciferase with a human Sp5 promoter consisting of a sequence of eight TCF/LEF binding sites. SW480 cells stably expressing the Sp5-Luc reporter gene and a hygromycin resistance gene were selected by treatment with 150 μg/mL of hygromycin for 7 days. These stably transduced SW480 cells were expanded in cell culture and used for all further screening activities. […] For Sp5-Luc reporter gene assays, the cells were plated at 4,000 cells/well in 384-well plates with medium containing 1% fetal bovine serum and incubated overnight at 37° C. and 5% CO2. Following incubation, 20 μl of BrightGlo luminescence reagent (Promega) was added to each well of the 384-well assay plates. The plates were placed on an orbital shaker for 2 min and then luminescence was quantified using the Envision (Perkin Elmer) plate reader. Readings were normalized to DMSO only treated cells, and normalized activities were utilized for EC50 calculations using the dose-response log (inhibitor) vs. response−variable slope (four parameters) nonlinear regression feature available in GraphPad Prism 5.0 (or Dotmatics).

IL-6 = IL-6 inhibition in LPS-stimulated THP-1 cells (HTRF); conditions: Homo sapiens; for inhibition at 10 µM: THP-1, read-out: percent inhibition at 10 μM; for EC50: THP-1 cells, LPS 500 ng/mL, 22 hours, IL6 HTRF
Description: THP-1 cells were cultured in basal media with 1% FBS for 24 hours before the start of the assay. […] THP-1 cells were plated at 5000 cells/well in the 384-well plates and incubated at 37° C. for 2 h. 500 ng/mL of LPS was added after 2 hours and cells were incubated for another 22 hours at 37° C. Plates were spun in a centrifuge for 1 minute at […] and a mixture of anti-IL6 XL665, and anti-IL6 Cryptate diluted in reconstitution buffer (Cisbio Inc.) was added to each well. Following incubation for 3 hrs at room temperature, Homogeneous Time-Resolved Fluorescence (HTRF) was measured using the Envision (Perkin Elmer) at 665 nm and […]. The ratio of fluorescence at 665 nm to 620 nm was used as a readout for IL6 quantification. All samples were processed in duplicate. Readings were normalized to DMSO treated cells and normalized activities were utilized for EC50 calculations using the dose-response log (inhibitor) vs. response−variable slope (four parameters) nonlinear regression feature available in GraphPad Prism 5.0 (or Dotmatics).

[2] = tested on: primary human fibroblasts derived from IPF patients (LL29 cells); assay: Inhibition of fibrotic process, αSMA staining in TGF-β1 treated fibroblasts; conditions: Fibroblast; for EC50: 96 h, LL29 cells, TGF-β1 20 ng/mL, 4 days, % αSMA positive cells; for inhibition at 10 µM: read-out: percent inhibition at 10 μM
Description: Representative compounds were screened using primary human fibroblasts (derived from IPF patients) treated with TGF-β1 to determine their ability to inhibit the fibrotic process.
LL29 cells are plated at 1,500 cells/well in 80 μL/well F12 medium supplemented with 1% Fetal Bovine Serum. […] Wells treated with TGF-31 and containing DMSO were used as controls. […] Following incubation for 4 days, SYTOX green nucleic acid stain (Life Technologies [Thermo Fisher Scientific]) was added to the wells at a final concentration of 1 μM and incubated at room temperature for 30 min.

SW480 colon cancer cells = assay: Cell viability assay (CellTiter-Blue); conditions: Homo sapiens; for EC50: 96 h, SW480 cell viability, four days; for inhibition at 10 µM: SW480, 96 h, read-out: percent inhibition at 10 μM
Description: Representative compounds were screened using the following assay procedure to assess the effect on cell viability as described below.
Approximately 2×10^3 SW480 colon cancer cells were seeded into each well and allowed to incubate in the presence or absence of compound for four days at 37° C./5% CO2. Eight replicates of DMSO-treated cells served as controls and cells treated with compound were performed in duplicate.
After incubation, 20 μL of CellTiter-Blue (Promega) was added to each well allowed to incubate for approximately 3 hours. This reagent was a buffered solution which contains resazurin, metabolically active cells were able to reduce rezarurin (blue) into resorufin (pink) which was highly fluorescent. This measured fluorescence was used as a readout for cell viability.

Row | SMILES | EC50 [1] [µM] | EC50 (IL-6) [µM] | EC50 (SW480 colon cancer cells) [µM] | inhibition at 10 µM [1] [%] | inhibition at 10 µM (IL-6) [%] | EC50 [2] [µM] | inhibition at 10 µM (SW480 colon cancer cells) [%] | inhibition at 10 µM [2] [%]
1 | O=C(Nc1cncc(-c2cnc3[nH]nc(-c4cc5c(-c6cccc(F)c6)cncc5[nH]4)c3c2)c1)C1CCC1 [Compound 21, N-(5-(3-(4-(3-Fluorophenyl)-1H-pyrrolo[2,3-c]pyridin-2-yl)-1H-pyrazolo [3,4-b]pyridin-5-yl)pyridin-3-yl)cyclobutanecarboxamide] | 0.532 | 0.324 | 0.586 |  |  | 0.31 |  | 
2 | CC(C)(C)CC(=O)Nc1cncc(-c2cnc3[nH]nc(-c4cc5c(-c6ccccc6F)cncc5[nH]4)c3c2)c1 [Compound 72, N-(5-(3-(4-(2-Fluorophenyl)-1H-pyrrolo[2,3-c]pyridin-2-yl)-1H-pyrazolo [3,4-b]pyridin-5-yl)pyridin-3-yl)-3,3-dimethylbutanamide] | 1.01 | 3.12 | 0.747 |  |  | 0.384 |  | 
3 | O=C(Nc1cncc(-c2cnc3[nH]nc(-c4cc5c(-c6ccccc6F)cncc5[nH]4)c3c2)c1)C1CCCC1 [Compound 78, N-(5-(3-(4-(2-Fluorophenyl)-1H-pyrrolo[2,3-c]pyridin-2-yl)-1H-pyrazolo [3,4-b]pyridin-5-yl)pyridin-3-yl)cyclopentanecarboxamide] | 0.84 | 1.29 | 0.638 |  |  | 0.408 |  | 
4 | CCC(=O)Nc1cncc(-c2cnc3[nH]nc(-c4cc5c(-c6cccnc6)cncc5[nH]4)c3c2)c1 [Compound 85, N-(5-(3-(4-(Pyridin-3-yl)-1H-pyrrolo[2,3-c]pyridin-2-yl)-1H-pyrazolo[3,4-b]pyridin-5-yl)pyridin-3-yl)propionamide] | > 10 | > 10 | > 10 | 9.3 | 34.1 | > 10 | 10 | 44.2
5 | O=C(Nc1cncc(-c2cnc3[nH]nc(-c4cc5c(-c6ccncc6)cncc5[nH]4)c3c2)c1)C1CCCC1 [Compound 134, N-(5-(3-(4-(Pyridin-4-yl)-1H-pyrrolo[2,3-c]pyridin-2-yl)-1H-pyrazolo[3,4-b]pyridin-5-yl)pyridin-3-yl)cyclopentanecarboxamide] | > 10 | > 10 | > 10 | 0 | 30 | > 10 | 10.6 | 27.9
6 | CCNCc1cncc(-c2cnc3[nH]nc(-c4cc5c(N6CCCCC6)cncc5[nH]4)c3c2)c1 [Compound 174, N-((5-(3-(4-(Piperidin-1-yl)-1H-pyrrolo[2,3-c]pyridin-2-yl)-1H-pyrazolo [3,4-b]pyridin-5-yl)pyridin-3-yl)methyl)ethanamine] | 9.46 | 3.4 | 4.14 |  |  | 3.61 |  | 
7 | O=C(Nc1cncc(-c2cnc3[nH]nc(-c4cc5c(N6CCCCC6)cncc5[nH]4)c3c2)c1)c1ccccc1 [Compound 179, N-(5-(3-(4-(Piperidin-1-yl)-1H-pyrrolo[2,3-c]pyridin-2-yl)-1H-pyrazolo[3,4-b]pyridin-5-yl)pyridin-3-yl)benzamide] | > 10 | > 10 | 3.84 | 45.1 | 36.1 | 4.59 |  | 
8 | c1ncc(-c2cnc3[nH]nc(-c4cc5c(N6CCCCC6)cncc5[nH]4)c3c2)cc1CN1CCCCC1 [Compound 183, 3-(4-(Piperidin-1-yl)-1H-pyrrolo[2,3-c]pyridin-2-yl)-5-(5-(piperidin-1-ylmethyl)pyridin-3-yl)-1H-pyrazolo[3,4-b]pyridine] | 4.98 | > 10 | 3.17 |  | 20.3 | 2.4 |  | 

The next lines start with results.

Row | EC50 [1] [µM] | EC50 (IL-6) [µM] | EC50 (SW480 colon cancer cells) [µM] | SMILES | inhibition at 10 µM [1] [%] | inhibition at 10 µM (IL-6) [%] | EC50 [2] [µM] | inhibition at 10 µM (SW480 colon cancer cells) [%] | inhibition at 10 µM [2] [%]
9 | > 10 | > 10 | > 10 | O=C(Nc1cncc(-c2cnc3[nH]nc(-c4cc5c(-c6cccc(F)c6)cncc5[nH]4)c3c2)c1)c1ccccc1 [Compound 11, N-(5-(3-(4-(3-Fluorophenyl)-1H-pyrrolo[2,3-c]pyridin-2-yl)-1H-pyrazolo [3,4-b]pyridin-5-yl)pyridin-3-yl)benzamide] | 22.5 | 20.2 | 7.57 | 16.8 | 
10 | 4.15 | > 10 | 1.91 | Fc1cccc(-c2cncc3[nH]c(-c4n[nH]c5ncc(-c6ccncc6)cc45)cc23)c1 [Compound 18, 3-(4-(3-Fluorophenyl)-1H-pyrrolo[2,3-c]pyridin-2-yl)-5-(pyridin-4-yl)-1H-pyrazolo[3,4-b]pyridine] |  | 20.3 | 1.23 |  | 
11 | 1.63 | > 10 | 1.62 | CC(C)CC(=O)Nc1cncc(-c2cnc3[nH]nc(-c4cc5c(-c6ccc(F)cc6)cncc5[nH]4)c3c2)c1 [Compound 30, N-(5-(3-(4-(4-Fluorophenyl)-1H-pyrrolo[2,3-c]pyridin-2-yl)-1H-pyrazolo [3,4-b]pyridin-5-yl)pyridin-3-yl)-3-methylbutanamide] |  | 24.6 | 1.14 |  | 
12 | > 10 | 0.127 | 2.08 | CC(C)(C)C(=O)Nc1cncc(-c2cnc3[nH]nc(-c4cc5c(-c6ccc(F)cc6)cncc5[nH]4)c3c2)c1 [Compound 36, N-(5-(3-(4-(4-Fluorophenyl)-1H-pyrrolo[2,3-c]pyridin-2-yl)-1H-pyrazolo [3,4-b]pyridin-5-yl)pyridin-3-yl)pivalamide] | 18.8 |  | 2.55 |  | 
13 | 2.94 | 3.47 | 1.44 | O=C(Nc1cncc(-c2cnc3[nH]nc(-c4cc5c(-c6ccc(F)cc6)cncc5[nH]4)c3c2)c1)C1CCCCC1 [Compound 51, N-(5-(3-(4-(4-Fluorophenyl)-1H-pyrrolo[2,3-c]pyridin-2-yl)-1H-pyrazolo [3,4-b]pyridin-5-yl)pyridin-3-yl)cyclohexanecarboxamide] |  |  | 1.18 |  | 
14 | > 10 | > 10 | 5.74 | Fc1ccc(-c2cncc3[nH]c(-c4n[nH]c5ncc(-c6ccccn6)cc45)cc23)cc1 [Compound 56, 3-(4-(4-Fluorophenyl)-1H-pyrrolo[2,3-c]pyridin-2-yl)-5-(pyridin-2-yl)-1H-pyrazolo[3,4-b]pyridine] | 15.5 | 25 | > 10 |  | 38.2
15 | > 10 | > 10 | 3.68 | c1ccc(-c2cnc3[nH]nc(-c4cc5c(-c6cccnc6)cncc5[nH]4)c3c2)nc1 [Compound 112, 5-(Pyridin-2-yl)-3-(4-(pyridin-3-yl)-1H-pyrrolo[2,3-c]pyridin-2-yl)-1H-pyrazolo[3,4-b]pyridine] | 44.2 | 16.9 | 2.19 |  | 
16 | > 10 | 0.068 | > 10 | CC(C)Nc1cncc(-c2cnc3[nH]nc(-c4cc5c(-c6ccncc6)cncc5[nH]4)c3c2)c1 [Compound 124, N-Isopropyl-5-(3-(4-(pyridin-4-yl)-1H-pyrrolo[2,3-c]pyridin-2-yl)-1H-pyrazolo[3,4-b]pyridin-5-yl)pyridin-3-amine] | 15.5 |  | 2.4 | 3.2 | 
